Patent US6740662B1, “Naphthyridine derivatives” (Yamanouchi Pharmaceutical Co., Ltd., priority 1999, dated 2004)
Where a name gives a salt, the structure may show the parent alone.

Key:
[1] = system: P450 drug metabolizing enzyme present in the liver microsome; assay: In vitro drug metabolism test using liver microsome; type: in vitro ADME; conditions: human and rat liver microsome, test compound 20 ng/ml, 37° C., 10, 20 and 30 minutes, residual ratio
Method: 1) Human and rat liver microsome suspension (human microsome: Xenotech, rat microsome: Charles River) was diluted with 100 mM Na-K phosphate buffer (pH 7.4) to a protein concentration of 0.5 mg/ml. To a 100 μl portion of this suspension were added 2 μl of a test compound solution (a 10 μg/ml acetonitrile solution), 500 μl of 200 mM Na-K phosphate buffer (pH 7.4), 50 μl of 1 mM EDTA-NaOH (pH 7.4) and 200 μl of purified water, thereby preparing a substrate solution (concentration in the reaction solution: liver microsome (as the protein content) 0.05 mg/ml, test compound 20 ng/ml, 100 mM Na-K phosphate buffer, 0.1 mM EDTA-NaOH).
2) An NADPH production system was prepared by mixing 42 mg of NADP, 5 ml of 100 mM […] (G6P) and 5 ml of 100 mM MgCl2, and adding 57 μl of G6P dehydrogenase (about 1750 U/5 mg/ml) to the mixture. This was heated at 37° C. for 5 minutes and then ice-cooled until its use.
3) A 900 μl portion of the substrate solution was pre-incubated at 37° C. for 5 minutes, and then 100 μl of the NADPH production system was added thereto, following by reaction at 37° C. for 10, 20 and 30 minutes. After termination of the reaction by adding 2 ml of ethyl acetate, the whole was ice-cooled. In this connection, a control sample was prepared by adding 100 μl of the NADPH production system after adding 2 ml of ethyl acetate (0 minute reaction).
4) To the reaction solution was added 100 μl of an internal standard substance having a predetermined concentration (an acetonitrile solution), 1 ml of 0.5 M phosphoric acid and 2 ml of ethyl acetate, followed by shaking for 10 minutes. After 10 minutes of centrifugation at 2,500 rpm, the ethyl acetate layer was separated and evaporated to dryness, and the residue was dissolved in 100 μl of an HPLC mobile phase solvent. The test compound was eluted after about 12 minutes, and the internal standard substance after about 16 minutes, under the following conditions. (HPLC measuring conditions mobile phase: acetonitrile/20 mM ammonium acetate=2:3 (v/v), column: Discovery RP Amide C16, 4.6×35 mm (SUPELCO), flow rate: 0.8 ml/min., detection: UV 286 nm)
5) A ratio (residual ratio) of the peak height ratio after 10, 20 or 30 minutes of the reaction to the peak height ratio of each test compound in the control (peak height ratio to the internal standard substance) was calculated.

[2] = Oral absorbability and pharmacokinetic profile evaluation test using type IV PDE inhibitory activity as the index; type: in vivo; conditions: orally administered to male Fisher rat at 3 mg/kg; plasma type IV PDE inhibitory activity as index; in comparison with a comparative compound
Method: Test Example 3. Oral absorbability and pharmacokinetic profile evaluation test using type IV PDE inhibitory activity as the index
The following assay was carried out in order to evaluate oral absorbability and pharmacokinetic profiles of the type IV PDE-inhibiting compounds of the invention.
1) Each test compound suspended in purified water containing 0.5% methyl cellulose was orally administered to a seven-week-old male Fisher rat at a dose of 3 mg/kg. In the control group, a solvent (0.5% methyl cellulose in purified water, 3 ml/kg) was administered in the same manner. After the oral administration, blood samples were periodically collected in the presence of heparin from the caudal vein of each rat under ether anesthesia, and plasma was prepared in the usual way.
2) The plasma prepared from each rat administered with the test compound or solvent was added to the type IV PDE measuring system shown in the above Test Example 1 so as to be a final concentration of 0.1%, and the type IV PDE inhibitory activity was measured.

melting point [°C]	metabolism by the P450 drug metabolizing enzyme present in the liver microsome [1]	SMILES	oral absorbability and metabolic stability [2]
155 to 158		CCn1c(=O)c(CCCc2nnn[nH]2)c(-c2cccc(Cl)c2)c2ccc(C)nc21 [Example 70, 4-(3-chlorophenyl)-1-ethyl-7-methyl-3-[3-(1H-tetrazol-5-yl)propyl]-1,8-naphthyridin-2(1H)-one]	
142 to 146		CCn1c(=O)c(CCN2CCC(C(=O)O)CC2)c(-c2cccc(Cl)c2)c2ccc(C)nc21 [Example 38, 1-{2-[4-(3-chlorophenyl)-1-ethyl-7-methyl-2-oxo-1,2-dihydro-1,8-naphthyridin-3-yl]ethyl}piperidine-4-carboxylic acid]	
161 to 162		CCn1c(=O)c(CCC(=O)O)c(-c2cccc(Br)c2)c2ccc(C)nc21 [Example 46, 3-[4-(3-bromophenyl)-1-ethyl-7-methyl-2-oxo-1,2-dihydro-1,8-naphthyridin-3-yl]propanoic acid]	
249 to 252		CCn1c(=O)c(C(N)=O)c(-c2cccc(Cl)c2)c2ccc(C)nc21 [Example 4, 4-(3-chlorophenyl)-1-ethyl-7-methyl-2-oxo-1,2-dihydro-1,8-naphthyridin-3-carboxamide]	
254 to 256	hardly metabolized	CCn1c(=O)c(-c2cccc(C(=O)O)c2)c(-c2cccc(Cl)c2)c2ccc(C)nc21 [Example 21, 3-[4-(3-chlorophenyl)-1-ethyl-7-methyl-2-oxo-1,2-dihydro-1,8-naphthyridin-3-yl]benzoic acid]	good oral absorbability and metabolic stability
225 to 227		CCn1c(=O)c(C2CCNCC2)c(-c2cccc(Cl)c2)c2ccc(C)nc21 (as salt: fumarate) [Example 28, 4-(3-chlorophenyl)-1-ethyl-7-methyl-3-(piperidin-4-yl)-1,8-naphthyridin-2(1H)-one monofumarate]	
174 to 175	hardly metabolized	CCn1c(=O)c(CCC(=O)O)c(-c2cccc(C)c2)c2ccc(C)nc21 [Example 77, 3-[1-ethyl-7-methyl-4-(3-methylphenyl)-2-oxo-1,2-dihydro-1,8-naphthyridin-3-yl]propanoic acid]	good oral absorbability and metabolic stability
167 to 171		CCn1c(=O)c(N)c(-c2cccc(Cl)c2)c2ccc(C)nc21 [Example 10, 3-amino-4-(3-chlorophenyl)-1-ethyl-7-methyl-1,8-naphthyridin-2(1H)-one]	
194 to 196		CCn1c(=O)c(CCc2nnn[nH]2)c(-c2cccc(Br)c2)c2ccc(C)nc21 [Example 80]	
157 to 160		CCn1c(=O)c(CCC(=O)O)c(-c2cccc(Cl)c2)c2ccc(CO)nc21 [Example 42, 3-[4-(3-chlorophenyl)-1-ethyl-7-hydroxymethyl-2-oxo-1,2-dihydro-1,8-naphthyridin-3-yl]propanoic acid]	
202 to 204		CCn1c(=O)c(CCC(=O)O)c(-c2cccc(Cl)c2)c2ccc(NC)nc21 [Example 44, 3-[4-(3-chlorophenyl)-1-ethyl-7-methylamino-2-oxo-1,2-dihydro-1,8-naphthyridin-3-yl]propanoic acid]	

More lines, now with the values behind:

SMILES	melting point [°C]	metabolism by the P450 drug metabolizing enzyme present in the liver microsome [1]	oral absorbability and metabolic stability [2]
CCn1c(=O)c(CCCOC(=O)OC)c(-c2cccc(Cl)c2)c2ccc(C)nc21 [Example 34, 4-(3-chlorophenyl)-1-ethyl-3-[3-(methoxycarbonyloxy)propyl]-7-methyl-1,8-naphthyridin-2(1H)-one]	92 to 93		
CCn1c(=O)c(CCC(=O)O)c(C2CCCCC2)c2ccc(C)nc21 [Example 47, 3-(4-cyclohexyl-1-ethyl-7-methyl-2-oxo-1,2-dihydro-1,8-naphthyridin-3-yl)propanoic acid]	155 to 156	hardly metabolized	good oral absorbability and metabolic stability
CCn1c(=O)c(CCC(=O)O)c(-c2cccc(Cl)c2)c2ccc(Cl)nc21 [Example 41, 3-[7-chloro-4-(3-chlorophenyl)-1-ethyl-2-oxo-1,2-dihydro-1,8-naphthyridin-3-yl]propanoic acid]	197 to 199	hardly metabolized	good oral absorbability and metabolic stability
CCn1c(=O)c(CCCO)c(-c2cccc(Cl)c2)c2ccc(C)nc21 [Example 16, 4-(3-chlorophenyl)-1-ethyl-3-(3-hydroxypropyl)-7-methyl-1,8-naphthyridin-2(1H)-one]	109 to 110		
CCn1c(=O)c(C2CCNCC2)c(-c2cccc(Cl)c2)c2ccc(C)nc21 [Example 28, 4-(3-chlorophenyl)-1-ethyl-7-methyl-3-(piperidin-4-yl)-1,8-naphthyridin-2(1H)-one monofumarate]		hardly metabolized	good oral absorbability and metabolic stability
CCn1c(=O)c(CCc2nnn[nH]2)c(C2CCCCC2)c2ccc(C)nc21 [Example 79]	207 to 209	hardly metabolized	good oral absorbability and metabolic stability
CCn1c(=O)c(CCC(=O)N(C)C)c(-c2cccc(Cl)c2)c2ccc(C)nc21 [Example 6, 3-[4-(3-chlorophenyl)-1-ethyl-7-methyl-2-oxo-1,2-dihydro-1,8-naphthyridin-3-yl]-N,N-dimethylpropanamide]	134 to 136		
CCOC(=O)c1c(-c2cccc(Cl)c2)c2ccc(C)nc2n(CC)c1=O [Example 1, ethyl 4-(3-chlorophenyl)-1-ethyl-7-methyl-2-oxo-1,2-dihydro-1,8-naphthyridin-3-carboxylate]	119 to 121		
CCn1c(=O)c(CCCOC)c(-c2cccc(Cl)c2)c2ccc(C)nc21 [Example 35, 4-(3-chlorophenyl)-1-ethyl-3-(3-methoxypropyl)-7-methyl-1,8-naphthyridin-2(1H)-one]	96 to 97		
CCn1c(=O)c(CCC(=O)O)c(-c2cccc(Cl)c2)c2ccc(C)nc21 [Example 2, 3-[4-(3-chlorophenyl)-1-ethyl-7-methyl-2-oxo-1,2-dihydro-1,8-naphthyridin-3-yl]propanoic acid]		hardly metabolized	good oral absorbability and metabolic stability
CCn1c(=O)c(CCCNS(C)(=O)=O)c(-c2cccc(Cl)c2)c2ccc(C)nc21 [Example 14, N-{3-[4-(3-chlorophenyl)-1-ethyl-7-methyl-2-oxo-1,2-dihydro-1,8-naphthyridin-3-yl]propyl}methanesulfonamide]	140 to 141		
CCn1c(=O)c(CCCC(=O)O)c(-c2cccc(Cl)c2)c2ccc(C)nc21 (hydrate or solvate) [Example 61, 4-[4-(3-chlorophenyl)-1-ethyl-7-methyl-2-oxo-1,2-dihydro-1,8-naphthyridin-3-yl]butanoic acid]	146 to 148		
CCn1c(=O)c(CCC(=O)O)c(-c2cccs2)c2ccc(C)nc21 [Example 78]	188 to 189		
CCn1c(=O)c(CCC(=N)N)c(-c2cccc(Cl)c2)c2ccc(C)nc21 (as salt: hydrochloride) [Example 40, 3-(2-amidinoethyl)-4-(3-chlorophenyl)-1-ethyl-7-methyl-1,8-naphthyridin-2(1H)-one monohydrochloride]	228 to 230		
CCOC(=O)Nc1c(-c2cccc(Cl)c2)c2ccc(C)nc2n(CC)c1=O [Example 9, ethyl N-[4-(3-chlorophenyl)-1-ethyl-7-methyl-2-oxo-1,2-dihydro-1,8-naphthyridin-3-yl]carbamate]	183 to 184		
